Results published in patent US11154563B2, “Immunoproteasome inhibitors” (Principia Biopharma Inc., priority 2017, dated 2021).

Legend:
[1] = target: immunoproteasome LMP7/B5i subunit (Homo sapiens, UniProt P20618+P28062); assay: Caliper-based proteasome enzymatic activity assay, LMP7; type: biochemical; settings: human recombinant immunoproteasome 0.3 nM, FAM-peptide substrate 1 μM, 3 h at rt
In short: (§1)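 Recombinant human immunoproteasome or constitutive proteasome (0.3 nM) with 1 μM FAM-peptide in 20 mM Hepes pH 7.4, 0.015% SDS, 0.01% BSA; LMP7/β5c ran 3 h at rt and were stopped with 5 uM carfilzomib, LMP2 ran 2 h and was stopped with 6.7 uM ixazomib. Cleaved product quantified by microfluidic separation; IC50 from percent inhibition.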

[2] = target: constitutive proteasome β5c unit (Homo sapiens, UniProt P20618+P28074); assay: Caliper-based proteasome enzymatic activity assay, β5c; type: biochemical; settings: human recombinant constitutive proteasome 0.3 nM, FAM-peptide substrate 1 μM, 3 h at rt; read-out: β5c subunit IC50
In short: as §1

[3] = target: immunoproteasome LPM2/β1i subunit (Homo sapiens, UniProt P28065+P40306); assay: Caliper-based proteasome enzymatic activity assay, LMP2; type: biochemical; settings: human recombinant immunoproteasome 0.3 nM, FAM-peptide substrate 1 μM, 2 h at rt
Procedure: A Caliper-based proteasome assay (Caliper Life Sciences, Hopkinton, Mass.) was used to measure inhibition of the immunoproteasome LMP7/B5i subunit, the immunoproteasome LPM2/β1i subunit, and the constitutive proteasome β5c unit for a compound of Formula (I). For LMP7 and β5c, serial dilutions of test compounds were incubated with either human recombinant immunoprotcasome or constitutive proteasome (0.3 nM enzyme) and a carboxyfluorescein (FAM)-labeled peptide substrate FAM-TYETFKSIMKKSPF-NH2 (1 μM) at it for 3 h. The reaction was then terminated with a buffer containing the known proteasome inhibitor carfilzomib at a concentration of 5 uM. For LMP2, serial dilutions of test compounds were incubated with human recombinant immunoproteasome proteasome (0.3 nM enzyme) and a carboxyfluorescein (FAM)-labeled peptide substrate FAM-[…]-NH2 (1 μM) at rt for 2 h. The reaction was then terminated with a buffer containing the known proteasome inhibitor ixazomib at a concentration of 6.7 uM. The reaction buffer was 20 mM Hepes pH 7.4, 0.01% bovine serum albumin, 0.015% SDS, 0.5 mM EDTA, 1%0/DMSO. The peptide cleavage reaction product was quantified on a Caliper LabChip 3000. Percent inhibition was calculated for each compound dilution and the concentration that produced 50% inhibition was calculated. This value is presented as the IC50.

PBMC/LMP7 = target: T1, PBMC/LMP7 (Homo sapiens, UniProt P28062); assay: Inhibition of proteasome activity in cells (Proteasome-Glo), PBMC; type: cell-based; settings: primary human PBMC, 2 h incubation, Suc-LLVY-aminoluciferin substrate
T1 construct: endogenous in cells; host or cells: primary human PBMC
Procedure: The cell-based effects of a compound described herein on the immunoproteasome are determined by measuring inhibition of proteasome activity in cells using the Proteasome-Glo™ Cell-Based Reagent (Promega, Madison Wis.). The Proteasome-Glo™ assay contains a specific luminogenic proteasome substrate in a buffer optimized for cell permeabilization, proteasome activity, and luciferase activity. For the chymotrypsin-like activity (LMP7 and […]), the peptide substrate is Suc-LLVY-aminoluciferin (Succinyl-leucine-leucine-valine-tyrosine-aminoluciferin). Cleavage of the substrate by proteasome results in luminescent signal which is proportional to the proteasome activity. The cell line THP-1 (a monocytic leukemia cell line enriched in immunoproteasome), the cell line HT-29 (a colorectal adenocarcinoma cell line enriched in constitutive proteasome), and primary human peripheral blood mononuclear cells (PBMC) are used to assess proteasome activity. Cells are seeded in a 96-well plate at 10,000 cells per well in RPMI 1640 high glucose medium with 10% fetal bovine serum (FBS). Compound dilutions are added to cells starting at a concentration of 5 uM and decreasing in tripling dilutions. The final DMSO concentration is 1%. The concentration range is adjusted as needed for compounds of different potencies. The cells treated with compounds are incubated for 2 h at 37° C. in 5% CO2. At the end of the 2 h incubation period, cells are transferred to white 384 well assay plates. 20 uL of Proteasome-Glo™ Reagent is added to each well and incubated for 10 min at rt. The plate is read in the Analyst HT instrument (Molecular Devices, Sunnyvale, Calif.) using luminescence mode. The percent inhibition of activity is plotted as a function of log compound concentration. The IC50 is then calculated for each compound using Prism software from GraphPad Software Inc. (San Diego, Calif.).

[4] = tested on: multiple myeloma cell lines and primary patient tumor cells; settings: including cells resistant to conventional and novel prior therapies; cited from earlier work
Th1/17 differentiation = settings: human and mouse; cited from earlier work
[5] = tested on: murine collagen-induced arthritis; settings: including reduction of inflammation and bone erosion; cited from earlier work
MRL/lpr lupus model = settings: cited from earlier work
[6] = tested on: murine DSS-induced colitis model; settings: cited from earlier work
[7] = tested on: Hashimoto's thyroiditis model; settings: autoantibody-driven model; cited from earlier work
prostate PC-3 cell line = settings: in vitro; cited from earlier work
tumor growth = settings: cited from earlier work

Row | Compound | IC50 [1] | IC50 [2] | IC50 [3] | IC50 (PBMC/LMP7) | also measured
1 | CC(C)C=C(C#N)C(=O)N1CCCC1CCC(=O)N[C@@H](Cc1ccccc1)B(O)O (single isomer, unassigned) [Example 3] | 0.06 µM | > 5 µM | 3.43 µM | 0.13 µM | 
2 | CC(C)C=C(C#N)C(=O)N1CCCCC1CCC(=O)N[C@@H](Cc1ccccc1)B(O)O (single isomer, unassigned) [Example 5] | 0.0076 µM | 1.04 µM | 0.448 µM | 0.023 µM | 
3 | CC(C)C=C(C#N)C(=O)N1CCCCC1CCC(=O)N[C@@H](Cc1ccccc1)B(O)O (single isomer, unassigned) [Example 6] | 0.057 µM | > 5 µM | 0.965 µM | 0.14 µM | 
4 | CC(C)C=C(C#N)C(=O)N1CCC[C@@H]1COCCC(=O)N[C@@H](Cc1ccccc1)B(O)O [Example 1, ((R)-1-(3-(((R)-1-(2-cyano-4-methylpent-2-enoyl)pyrrolidin-2-yl)methoxy)propanamido)-2-phenylethyl)boronic acid] | 0.079 µM | 1.46 µM |  | 0.19 µM | 
5 | CC(C)C=C(C#N)C(=O)N1CCCC[C@@H]1COC(=O)N[C@@H](Cc1ccccc1)B(O)O [Example 2, ((R)-1-(((((R)-1-(2-cyano-4-methylpent-2-enoyl)piperidin-2-yl)methoxy)carbonyl)amino)-2-phenylethyl)boronic acid] | 0.055 µM | > 5 µM | > 5 µM | 0.42 µM | 
6 | CC1=C(C(=O)N[C@H](C)C(=O)N[C@@H](Cc2c[nH]c3ccccc23)C(=O)N[C@@H](Cc2ccccc2)C(=O)[C@@]2(C)CO2)Cc2ccccc21 [PR-924] |  |  |  |  | growth of multiple myeloma cells [4]: inhibit growth
7 | COc1ccc(C[C@H](NC(=O)[C@H](C)NC(=O)CN2CCOCC2)C(=O)N[C@@H](Cc2ccccc2)C(=O)[C@@]2(C)CO2)cc1 [PR-957] |  |  |  |  | block of Th1/17 differentiation (Th1/17 differentiation): potently block; disease activity in collagen-induced arthritis [5]: significantly inhibit disease activity; disease progression (MRL/lpr lupus model): prevented disease progression; plasma cell numbers and anti-dsDNA IgG levels (MRL/lpr lupus model): reduced plasma cell numbers and anti-dsDNA IgG levels; inflammation and tissue destruction [6]: reduced inflammation and tissue destruction; efficacy in Hashimoto's thyroiditis model [7]: efficacious
8 | CCCCCCC(=O)N[C@@H](C)C(=O)N[C@@H](CC(C)C)C(=O)[C@@]1(CO[Si](C)(C)C(C)(C)C)CO1 [UK-101] |  |  |  |  | apoptosis of PC-3 cells (prostate PC-3 cell line): induced apoptosis; tumor growth in vivo (tumor growth): significantly suppressed tumor growth

Further lines, with some results ahead:

Row | IC50 [1] | IC50 [2] | IC50 [3] | IC50 (PBMC/LMP7) | Compound | also measured
9 | 0.004 µM | 0.637 µM | 2.44 µM | 0.039 µM | CC(C)C=C(C#N)C(=O)N1CCCC1CCC(=O)N[C@@H](Cc1ccccc1)B(O)O (single isomer, unassigned) [Example 4] | 
10 | 0.0026 µM | > 5 µM | > 5 µM | 0.0094 µM | CC(C)C=C(C#N)C(=O)N1CCC[C@@H]1COC(=O)N[C@@H](Cc1ccccc1)B(O)O [Example 7, ((R)-1-(((((R)-1-(2-cyano-4-methylpent-2-enoyl)pyrrolidin-2-yl)methoxy)carbonyl)amino)-2-phenylethyl)boronic acid] | 
11 | 0.0018 µM | 3.41 µM | > 5 µM | 0.0071 µM | CC(C)(C)C=C(C#N)C(=O)N1CCC[C@@H]1COC(=O)N[C@@H](Cc1ccccc1)B(O)O [Example 10, ((R)-1-(((((R)-1-(2-cyano-4,4-dimethylpent-2-enoyl)pyrrolidin-2-yl)methoxy)carbonyl)amino)-2-phenylethyl)boronic acid] | 
12 | 0.0055 µM | 4.19 µM | > 5 µM | 0.0033 µM | CC(C)(C)C=C(C#N)C(=O)N1CCCC[C@@H]1COC(=O)N[C@@H](Cc1ccccc1)B(O)O [Example 15, ((R)-1-(((((R)-1-(2-cyano-4,4-dimethylpent-2-enoyl)piperidin-2-yl)methoxy)carbonyl)amino)-2-phenylethyl)boronic acid] | 
13 | 0.0027 µM | 1.45 µM | 2.16 µM |  | CC(C)C[C@H](NC(=O)OC[C@H]1CCCCN1C(=O)C(C#N)=CC(C)(C)N1CCC(F)(F)C1)B(O)O [Example 105, ((R)-1-(((((R)-1-(2-cyano-4-(3,3-difluoropyrrolidin-1-yl)-4-methylpent-2-enoyl)piperidin-2-yl)methoxy)carbonyl)amino)-3-methylbutyl)boronic acid] | 
